Experimental data reported in patent US20260062445A1, “PEPTIDES WITH CYTOKINE-RELEASING ACTIVITY AND METHODS FOR CHARACTERIZING CYTOKINE-RELEASING PROFILES OF PEPTIDES” (KOLIBER BIOSCIENCES INC., priority 2022, published 2026).

System: expanded naïve CD4+ T cells co-cultured with PBMCs
Assay: Expanded CD4 positive T cell assay (cytokine release, ELISA)
Assay type: cell-based, human
Settings: for response across donors (frequency of responding wells, IL-10 and IFN-γ): three different donors expressing HLA-DRB1*1101, FIGS. 7A-7B
Excerpt: To improve the robustness of the assay and decrease the well-to-well variation, a novel assay system was developed. In effect, by expanding the naïve CD4+ T cells, the number of antigen specific T cells can be increased per well with the goal of detecting a responding well with greater frequency. To expand the naïve CD4+ T cells, the cells are first isolated from PBMCs using negative selection with antibody coated magnetic beads. The naïve CD4+ T cells are then polyclonally expanded using anti-CD3 and anti-CD28 Dynabeads. An expansion of up to 20-fold was observed. The beads were then removed, and the cells were rested for 24 hours. The expanded CD4+ T cells were then co-cultured with PBMCs at a 4:1 ratio and stimulated with peptides twice every 3 days. IL-2 helper cytokine was included. Peptides were utilized at 40 μg/mL. After two peptide stimulations, IL-10 levels in the range of 20-50 picograms […]/mL were observed as compared to 5-10 pg/mL for negative controls (vehicle only) (see FIG. 3C).
PBMCs were isolated from healthy HLA typed donors of different ages, ethnicities, and genders. […] 100 million PBMC were thawed into media (Rosewell Park Memorial Institute (RPMI) 1640 medium, 10% fetal bovine serum (FBS) Heat Inactivated, 1% Penicillin-Streptomycin) and rested at 37° C., 5% CO2 overnight.
Naïve CD4+ T cells are isolated from rested PBMC using the BioLegend MojoSort™ Human CD4 T Cell Isolation Kit. Isolated T cells were counted and cultured at a density of 1×10^6 cells/mL of media with 30 units per milliliter (U/mL) of IL-2. T cells were activated and expanded using ThermoFisher Dynabeads™ Human T-Activator CD3/CD28. Beads were added at a 1:1 bead-to-cell ratio. T cells are incubated at 37° C., 5% CO2 for approximately 1 week, splitting in order to maintain the 1×10^6 cells/mL seeding density and with the addition of fresh media. T cells often saw a 20- to 30-fold expansion.
Expansion beads were magnetically removed from the T cell culture. Remaining T cells were cultured at 1×10^6 cells/mL in media and the IL-2 level was dropped to 10 units/milliliter (U/mL). T cells are rested 24 hours. Meanwhile, another vial of PBMC of the same donor was thawed and similarly rested overnight in media. 1 million expanded T cells and 0.25 million PBMC were cocultured in 1 mL of media containing 10 U/mL IL-2 in 24 well plates. Each well was stimulated with 40 μg of peptide with at least 6 well replicates for each peptide. Sterile water with 10% DMSO was used as a negative control. Plates were incubated at 37° C., 5% CO2 for 3 days. After 3 days, supernatants of each well were collected into Eppendorf tubes and frozen. Cells were resuspended in fresh media containing 10 U/mL IL-2. Cells were restimulated with 40 μg of peptide in the same format. Plates were incubated for another 3 days (see FIG. 2). Supernatants were collected after the second stimulation and cell culture was terminated.
IL-10 and IFN-γ cytokine concentrations were determined for samples. 96-well microwell plates were coated with capture antibody and incubated overnight at 4° C. Frozen supernatants were thawed and assayed using ELISA MAX™ Deluxe kits.
To quantify the number of responding wells for each peptide, a one sample t-test was utilized where signal from each well was compared against the distribution of negative wells from vehicle only controls. The negative distribution was normal (based on Shapiro Wilk test). […] As such, for each peptide, a fraction of responding wells was derived. The fraction of responding wells after the first and second peptide stimulations in the expanded CD4+ T cell assay are shown in FIGS. 5A-5D. Moreover, the fraction of responding wells was further subjected to the statistical test for proportions which takes into account the sample size.

Question: How did the IFN-γ release (peptide 40 μg/mL, FIGS. 5A-5D) turn out when FAVPAKQAKKTLT [KBP82] was run?
Answer: The IFN-γ release was “minimal levels”.

Question: What about the “specificity for IL-10 production vs IFN-γ” value (three different donors expressing HLA-DRB1*1101) of the same substance?
Answer: The value was “high specificity”.

Question: And the “response across donors (frequency of responding wells, IL-10 and IFN-γ)” value (shortened to “response across donors”)?
Answer: Its value is “respond across donors”.

Question: For KLAKRLLLSMNQ [KBP63], which “response across donors” value is on record?
Answer: The value was “respond across donors”.

Question: With “Keyhole limpet haemocyanin [KLH, reference compound]” as the substance, how does the IFN-γ signal (upon double stimulation) read?
Answer: The IFN-γ signal was 150 pg/mL.

Question: And the IFN-γ signal (upon single stimulation)?
Answer: Its IFN-γ signal is 80 pg/mL.

Question: How did the “response across donors” value turn out when LALLAPKLLRRF [KBP73] was run?
Answer: Its value is “respond across donors”.
